Molecular target: T1, SARS-CoV-2 3CLpro (3CL protease, MBP-tagged; main protease, Mpro) (Severe acute respiratory syndrome coronavirus 2, UniProt P0DTD1)
T1 construct: gene rep
Experiment: fluorogenic protease substrate assay (ex […] / em […] nm)
Type: biochemical

Row | SMILES | IC50 [nM]
1 | CC(=O)O[C@H]1[C@H](Oc2c(-c3ccc(O)c(O)c3)oc3cc(O)cc(O)c3c2=O)O[C@H](CO[C@@H]2O[C@@H](C)[C@H](O)[C@@H](O)[C@H]2O)[C@@H](O)[C@@H]1O [2”-O-acetylrutin] | 100
2 | O=C(O)CC(=O)OC[C@H]1O[C@@H](Oc2c(-c3ccc(O)c(O)c3)oc3cc(O)cc(O)c3c2=O)[C@H](O)[C@@H](O)[C@@H]1O [quercetin 3-(6”-malonyl-glucoside)] | 170
3 | CC(=O)OC[C@H]1O[C@@H](Oc2c(-c3ccc(O)c(O)c3)oc3cc(O)cc(O)c3c2=O)[C@H](O)[C@@H](O)[C@@H]1O [quercetin 3-O-(6“-acetyl-glucoside)] | 120

Reference: paper PMC11940557, “Integration of metabolomics and chemometrics with in-silico and in-vitro approaches to unravel SARS-Cov-2 inhibitors from South African plants” (PLOS One, 2025)
